Key:
Assay type in all cases: cell-based, human
[1] = test system: procaspase 3; assay: Immunoblot of procaspase 3 cleavage, SCC-13 spheroids; conditions: 8 day spheroids, 20 μM
Procedure: In (A), SCC-13 cells (40,000) were plated in non-adherent six well dishes, grown for 8 days in spheroid medium, and then NC9 was added and spheroid number was monitored at 0-48 hours. In (B), spheroids were grown for 10 days, treated for 48 hours with indicated level of NC9 and photographed. In (C), SCC-13 cells were plated at 40,000 cells per well in non-adherent six well dishes and after 10 days the spheroids were treated with 0-20 μM NC9 for 0-72 hours before trypan blue exclusion viability assay. In (D), SCC-13 spheroids were grown for 10 days, treated with 0 or 20 μM NC9 for 48 hours, and TG2 level was assayed by immunoblot. In (E), SCC-13 cells were grown as monolayers in spheroid medium and TG2 activity was monitored by FC incorporation assay as outlined in the Materials and Methods for Example 7. In (F), SCC-13 cell 8 day spheroids were treated with […] NC9 and cells were harvested at the indicated times for immunoblot detection of procaspase 3 and cleaved caspase 3. In all panels, the values are mean±SEM, n=3, p<0.05.

[2] = test system: 1321N cells; assay: Agarose colony formation assay, TG2-null 1321N cells; conditions: 10 μM, 2 weeks
Procedure: Agarose colony formation assay. Agarose colony formation assay was conducted as described (Horman, S. R. et al., J. Biomol. Screen 18(10):1298-308, 2013; Zhang, K. et al., Tumour Biol. 35(3):2537-48, 2014) using 6-well plates and 5,000 cells in each well. 10 μM NC9 or DMSO was added to every layer at the start of the experiments. 2 mL liquid MEM containing 10 μM NC9 or DMSO was used to cover the agarose and it was changed 3 times a week. Colony growth was monitored every day and at the end of 10-15 days, the colonies were fixed with 4% paraformaldehyde, stained with 0.005% crystal violet, washed with PBS twice and 40 random pictures were taken from each treatment group. A person blinded for the treatments measured the area of the colonies using ImageJ program and the volumes were calculated from the area data under the assumption that the colonies are perfect spheres. The volumes were used to compare the effect of NC9 on colony growth.

[3] = test system: EGFR; assay: Immunoblot of EGFR and phospho-EGFR in GBM cells
Procedure: In (A) it is shown that shorter treatments with NC9 had no effect on EGF-stimulated EGFR phosphorylation in U87 cells. U87 cells were treated with 10 μM NC9 or DMSO control for 24 h followed by 10 min of 100 ng/mL EGF treatment. At the end of the treatments, cells were lysed and 20 μg of lysates from U87 cells were blotted for phospho-EGFR, EGFR and tubulin. […] Cell medium was changed every 24 h and fresh inhibitors or DMSO was added to the medium. At the end of the treatment, cells were lysed and 20 μg of lysates from cells U87 and T98G were blotted for phospho-EGFR, EGFR and actin.
Immunoblotting. Cells were rinsed in ice-cold phosphate-buffered saline (PBS) and collected in lysis buffer, containing 0.5% NP-40, 150 mM NaCl, 10 mM Tris-Cl (pH 7.4), 1 mM EGTA, 1 mM EDTA, 1 mM phenylmethylsulphonyl fluoride, 1 μM okadaic acid, and 10 μg/mL each of aprotinin, leupeptin, and pepstatin. Samples were sonicated on ice and centrifuged at 16,000 g for 10 min. Protein concentrations of supernatants were then determined by the bicinchoninic acid assay with bovine serum albumin (BSA) as a standard and samples were diluted to a final concentration of 1 mg/mL with 2× reducing stop buffer (0.25 M Tris-HCl, pH 6.8, 5 mM EDTA, 5 mM EGTA, 25 mM dithiothreitol, 2% SDS, 10% glycerol, and bromophenol blue as the tracking dye). […]

SMILES: C=CC(=O)NCCCC[C@H](NC(=O)OCc1ccccc1)C(=O)NCCOCCOCCNS(=O)(=O)c1cccc2c(N(C)C)cccc12 [NC9]
- time to initiation of procaspase 3 cleavage after addition [1]: ≤ 1 h
- colony growth, 1321N [2]: no effect
- phospho-EGFR and EGFR levels, longer treatment ([3]; U87 and T98G cells, 10 μM, 48-72 h): decrease phospho-EGFR and EGFR levels in U87 cells, but not T98G cells
- EGFR or phospho-EGFR levels, shorter treatment ([3]; U87 cells, 10 μM 24 h, then 100 ng/mL EGF 10 min): did not result in a decrease
